The text below walks through data of patent publication US8138187B2, “Substituted heteroaryl derivatives” (Gruenenthal GmbH, priority 2006, dated 2012).

This assay addresses human μ opiate receptor (Homo sapiens, UniProt P35372). In words: μ binding, displacement of [3H]-naloxone. The following applies: CHO-K1 membranes expressing human μ opiate receptor; Cheng-Prusoff. In general terms: Loss of bound radioactivity is the signal in a displacement assay; it reports binding, not function.

Each structure is given as a SMILES string.

human μ opiate receptor, sequence (P35372 whole entry): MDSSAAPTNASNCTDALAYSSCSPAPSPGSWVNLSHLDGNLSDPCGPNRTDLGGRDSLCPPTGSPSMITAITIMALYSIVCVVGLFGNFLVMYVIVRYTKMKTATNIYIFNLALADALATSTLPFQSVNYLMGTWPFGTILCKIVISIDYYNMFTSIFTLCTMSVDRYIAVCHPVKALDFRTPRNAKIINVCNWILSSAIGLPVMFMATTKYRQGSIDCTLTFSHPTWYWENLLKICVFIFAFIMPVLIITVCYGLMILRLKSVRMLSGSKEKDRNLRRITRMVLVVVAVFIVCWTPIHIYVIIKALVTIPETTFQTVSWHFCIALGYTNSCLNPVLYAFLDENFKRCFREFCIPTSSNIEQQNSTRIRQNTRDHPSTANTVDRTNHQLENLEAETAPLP

The Ki is a measure of affinity in units of concentration, obtained from inhibition or displacement. The low end stands for a stronger hold on the target, the high end for a looser hold on the target. With `CN(C)C1(Cc2ccccc2)CC=C(c2cc3ccccc3n2C)CC1` (stereo not shown) [Example 302, [1-Benzyl-4-(1-methyl-1H-indol-2-yl)cyclohex-3-enyl]dimethylamine], the Ki was 0.103 µM.
